Measurements from ChEMBL document CHEMBL5226340, “Chemical Biology of Sortase A Inhibition: A Gateway to Anti-infective Therapeutic Agents” (J Med Chem, 2021).
Converted amounts (≈) assume the structure as drawn.

Columns and labels:
Sortase A [1] = target: T1, Sortase A (Staphylococcus aureus, UniProt Q9S446); assay: Inhibition of Staphylococcus aureus USA 300 SrtA expressed in Escherichia coli BL21 (DE3) cells using Dabcyl-QALPETGEE-Edans as substrate preincubated for 30 mins followed by substrate addition and further incubated for 1 hr by FRET assay
T1 sequence (Q9S446 whole entry): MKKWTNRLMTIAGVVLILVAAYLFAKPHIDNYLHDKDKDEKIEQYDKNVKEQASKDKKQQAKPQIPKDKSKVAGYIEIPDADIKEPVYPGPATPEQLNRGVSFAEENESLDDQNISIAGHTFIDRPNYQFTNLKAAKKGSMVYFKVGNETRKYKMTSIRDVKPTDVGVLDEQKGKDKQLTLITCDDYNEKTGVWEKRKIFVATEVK

Staphylococcus aureus [2] = assay: Antibacterial activity against Staphylococcus aureus; format: functional
Sortase A [3] = target: T1, Sortase A; assay: Inhibition of wild type recombinant Staphylococcus aureus ATCC 25904 Sortase A expressed in Escherichia coli BL21 using Dabcyl-QALPETGEE-Edans as substrate incubated for 30 mins followed by substrate addition and measured after 60 mins by FRET assay
Sortase A [4] = target: T1, Sortase A; assay: Inhibition of Staphylococcus aureus SrtA transpeptidation activity
Sortase A [5] = target: T1, Sortase A; assay: Inhibition of Staphylococcus aureus SrtA using […] as substrate by FRET assay
Sortase A [6] = target: T1, Sortase A; assay: Inhibition of Staphylococcus aureus SrtA using FRET substrate incubated for 1 hr by FRET assay
Sortase A [7] = target: T1, Sortase A; assay: Binding affinity to Staphylococcus aureus SrtA assessed as inhibition constant
[8] = target: T2, Sortase A (Staphylococcus aureus) (UniProt Q9S446); assay: Binding affinity to Staphylococcus aureus SrtA assessed as first order rate constant of inactivation
T2 sequence (whole entry): T1 sequence (Q9S446 whole entry)

[9] = target: T2, Sortase A (Staphylococcus aureus); assay: Binding affinity to Staphylococcus aureus SrtA using Abz-DNP as substrate assessed as second order rate constant of inhibition, kinact/ki
Staphylococcus aureus [10] = assay: Inhibition of biofilm formation in Staphylococcus aureus ATCC 29213 at 100 uM incubated for 24 hrs by safranin staining based analysis relative to control; format: functional
Sortase A [11] = target: T1, Sortase A; assay: Inhibition of C-terminal 6His-tagged recombinant Staphylococcus aureus SrtA with 1 to 59 residues truncated from N-terminus expressed in Escherichia coli BL21 (DE3) using dabcyl-QALPETGEE-edans as substrate preincubated for 1 hr followed by substrate addition and measured for 1 hr by FRET assay
Staphylococcus aureus [12] = assay: Inhibition of biofilm formation in Staphylococcus aureus ATCC 6538 at 100 uM incubated for 24 hrs by safranin staining based analysis relative to control; format: functional
Staphylococcus aureus [13] = assay: Inhibition of biofilm formation in Staphylococcus aureus ATCC 25923 at 100 uM incubated for 24 hrs by safranin staining based analysis relative to control; format: functional
Staphylococcus aureus [14] = assay: Inhibition of biofilm formation in Staphylococcus aureus ATCC 6538 incubated for 24 hrs by crystal violet staining based analysis; format: functional, organism-based; conditions: ATCC 6538, 24 h
Sortase A [15] = target: T1, Sortase A; assay: Inhibition of Staphylococcus aureus SrtA expressed in Escherichia coli BL21 (DE3) cells using Abz-LPETG-Dap(Dnp) as substrate preincubated for 30 mins followed by substrate addition and further incubated for 30 mins by HPLC analysis
[16] = target: T2, Sortase A (Staphylococcus aureus); assay: Inhibition of Staphylococcus aureus SrtA expressed in Escherichia coli BL21 (DE3) cells using Abz-LPETG-Dap(Dnp) as substrate assessed as kinact/ki

O=C(/C=C/c1ccccc1)c1ccccc1 [CHALCONE] showed an IC50 (Sortase A [1]) of 53.2 µM.

Compound COc1ccc(CCc2cc(OC)c(OC)c(OC)c2)cc1O has an MIC (Staphylococcus aureus [2]) of 1600 µM (≈ 509 µg/mL) and an IC50 (Sortase A [3]) of 65.7 µM.

Work on O=C(/C=C/c1ccc(O)cc1)O[C@H]1[C@@H](O)[C@H](O)C[C@](O)(C(=O)O)[C@H]1O yielded an IC50 (Sortase A [4]) of 161 µM.

For O=c1cc(-c2ccc(O)cc2)oc2cc(O)c([C@@H]3O[C@H](CO)[C@@H](O)[C@H](O)[C@H]3O)c(O)c12 [ISOVITEXIN], the IC50 (Sortase A [5]) was 67 µM.

O=c1ccc2cc(O)c(O)cc2o1 [ESCULETIN] showed an IC50 (Sortase A [6]) of 36.2 µM.

O=C1C[C@H]2O[C@H](CCc3ccccc3)C3=C(C(=O)C=CC3=O)[C@H]2O1 was tested, and the Ki (Sortase A [7]) was 3.57 µM, the Kinact [8] was 3.88 10^-2/min and the Ratio [9] was 1.09 10^4/M/min. For the same compound, the kinact/Ki [9] was 183 M⁻¹ s⁻¹.

CC(=O)/C(=N/Nc1ccccc1)C(=O)O gave an inhibition at 100 µM (Staphylococcus aureus [10]) of 60%, an IC50 (Sortase A [11]) of 80 µM and an MIC (Staphylococcus aureus [2]) greater than 270 µM. The inhibition at 100 µM (Staphylococcus aureus [12]) was 60% and the inhibition at 100 µM (Staphylococcus aureus [13]) was 60%.

For CCOC(=O)/C(=N\Nc1c(F)cccc1F)C(=O)c1cc(C)nn1CC, the IC50 (Sortase A [11]) was 75 µM, the IC50 (Staphylococcus aureus [14]) was 0.9 µM and the MIC (Staphylococcus aureus [2]) was greater than 200 µM.

Compound O=S(=O)(/C=C\C(F)(F)F)c1ccccc1 has an IC50 (Sortase A [15]) of 190 µM and a Ratio [16] of 90 M⁻¹ min⁻¹.
